Structures are written as SMILES.

Test [1] relates to C. parapsilosis ATCC 22019. The experiment in a line: Checkerboard MIC assay, FICI. The test is classed as cell-based, Candida parapsilosis. Particulars: combination with Compound 1; C. parapsilosis ATCC 22019. An excerpt:
(§1) The following assay was used to determine the minimum inhibitory concentration (MIC) and fractional inhibitory concentration index (FICI) for combinations of an antifungal agent and a glycopeptide antibacterial agent. This assay and methods for calculating FICI are well known in the art. See, for example, Eliopoulos, E. G. and R. Moellering, Jr. “Antimicrobial Combinations” in Antibiotics in Laboratory Medicine, edited by V. Lorian, 4th Ed., Williams & Wilkins, Baltimore, MD, pp. 330-396 (1996); […] et al., Antimicrobial Agents and Chemotherapy 47(4):1416-1418 (2003); or […] et al., Antimicrobial Agents and Chemotherapy 46(10):3323-3326 (2002). Procedures, protocols, supplies and equipment used in this assay follow the recommendations approved and published by the National Committee for Clinical Laboratory Standards (NCCLS), Wayne, Pa. as described in NCCLS 2003, “Reference Method for Broth Dilution Antimicrobial Susceptibility Tests for Bacteria that Grow Aerobically; Approved Standard” (NCCLS document M7-A6); NCCLS 2002, “Reference Method for Broth Dilution Antifungal Susceptibility Tests of Filamentous Fungi that Grow Aerobically; Approved Standard” (NCCLS document M38-A); and NCCLS 2002 “Reference Method for Broth Dilution Antifungal Susceptibility Tests of Yeast; Approved Standards-2nd Edition” (NCCLS document M27-A2). Using a checkerboard method, a 2-fold dilution 100× final concentration master plate was prepared using a 96-well U-shape microtiter plate and an appropriate solvent. In the “checkerboard” method, a microtiter plate is divided into “columns” in which each well in the column contains the same amount of an antifungal agent (Compound A) being diluted along the x-axis, and “rows” in which each well in the row contains the same amount of a glycopeptide antibacterial agent (Compound B) being diluted on the y-axis. Also included is a row (or column) for Compound A or B alone. The dilutions used in the checkerboard are exponential (by powers of two). The result is that each well in the microtiter plate contains a unique concentration of the two compounds being tested. […] After mixing, 100 μL of 2× drug combinations were distributed into 96-well microtiter plates. […] Compound A was not added to Column 12, so Column 12 contained only Compound B. Compound B was diluted from row A starting at 6,400 μg/mL down to row G (100 μg/mL). Wells in Row A contained a final concentration of 64 μg/mL of Compound B; Row B contained a final concentration of 32 μg/mL of Compound B; Row C contained a final concentration of 16 μg/mL of Compound B; etc. Compound B was not added to Row H, so Row H only contained Compound A. […] The MIC of the glycopeptide antibacterial agent determined from this experiment was used in FIC calculations. […] RPMI-1640 without sodium bicarbonate media (GIBCO-BRL, Carlsbad, Calif.), an enriched media formulated for mammalian cells, was used according to the NCCLS guidelines for yeast and filamentous fungi susceptibility testing. The medium was buffered with 0.165 M 3-[N-Morpholino]propanesulfonic acid (MOPS) supplemented with 20 g/L glucose and pH adjusted to 7.0 with hydrogen chloride. Sabouraud Dextrose Agar ([…] plates, and Potato Dextrose Agar (PDA) plates were purchased from Hardy Diagnostic (Santa Maria, Calif.). Yeast cultures were started from -80° C. frozen stock streaked on […] incubated at 35° C. under aerobic conditions for 24 h. The […] in the refrigerator for up to 2 weeks and used regularly as a starting culture. About 24 to 48 h before each assay was run, yeasts were streaked on SDA plates for isolated colonies. To prepare the inoculum, from one to four colonies were resuspended in 5 mL of saline, and vortexed for 15 sec. […] For most yeast and mold cultures, the optical density (OD) of the suspension was adjusted to 0.11 in saline to provide 0.4×10^6 CFU/mL. However, for Fusarium moniliforme and Pseudallescheria boydii the OD of the suspension was adjusted to OD=0.17 to provide 0.4×10^6 CFU/mL. […]

The next test concerns C. tropicalis ATCC 750. Description: Checkerboard MIC assay, FICI. The test is classed as cell-based, Candida tropicalis. Particulars: combination with Compound 1; C. tropicalis ATCC 750.
Excerpt: as §1

On to `C[C@@H]1[C@H](O)[C@@H](C)/C=C/C=C/C=C/C=C/C=C/C=C/C=C/[C@H](O[C@@H]2O[C@H](C)[C@@H](O)[C@H](N)[C@@H]2O)C[C@@H]2O[C@](O)(C[C@@H](O)C[C@@H](O)[C@H](O)CC[C@@H](O)C[C@@H](O)CC(=O)O[C@H]1C)C[C@H](O)[C@H]2C(=O)O` [Amphotericin B], for which the FICI is 0.28 in test [1] and 0.27 in the test on C. tropicalis ATCC 750.

Consider `C[C@@H]1[C@H](O)[C@@H](C)/C=C/C=C/CC/C=C/C=C/C=C/C=C/C(O[C@H]2O[C@H](C)[C@@H](O)[C@H](N)[C@@H]2O)CC2O[C@](O)(CC(O)C(O)CCC(O)CC(O)CC(O)CC(=O)O[C@H]1C)CC(O)C2C(=O)O` (stereo partly shown) [Nystatin], for which the FICI (in test [1]; in the test with C. tropicalis ATCC 750) was 0.31 throughout.

The record behind these values is patent US7521418B2, “Use of a polyene macrolide antifungal agent in combination with a glycopeptide antibacterial agent” (Theravance, Inc., priority 2003, dated 2009).
